Experiments:
[1] = test system: SK-N-BE(2)-C shMYCN cells; assay: Alamar Blue viability, Dox-inducible SK-N-BE(2)-C shMYCN cells; type: cell-based; conditions: Homo sapiens, 72 h, 72 h treatment
Description: (§1) The MYCN amplified neuroblastoma cell line SK-N-BE(2)-C was kindly provided by Professor June Biedler (Memorial Sloan Kettering Cancer Centre, New York, NY, USA), and Kelly was obtained from European Collection of Cell Cultures. The two normal lung fibroblast cell lines (MRC-5 and WI-38) were purchased from ATCC. SK-N-BE(2)-C shMYCN#2 doxycycline-inducible cell and Kelly shMYCN#2 doxycycline-inducible cell were custom-made by GenScript (Piscataway, NJ, USA). SK-N-BE(2)-C, SK-N-BE(2)-C shMYCN#2, and SHEP MYCN3 doxycycline-inducible cells were maintained in Dulbecco’s modified Eagle’s medium (DMEM) (Invitrogen, Life Technologies, Waltham, MA, USA) with 10% foetal calf serum (FCS). Kelly and Kelly shMYCN#2 doxycycline-inducible cell were cultured in Roswell Park Memorial Institute (RPMI) 1640 (Invitrogen, Life Technologies) with 10% FCS. MRC-5 and WI-38 were cultured in Alpha-MEM media (Invitrogen, Life Technologies) with 10% FCS. All cells were not cultured for more than 2 months. All used cell lines were authenticated by Cell Bank Australia (Westmead, NSW, Australia) as being free from mycoplasma, and cultured at 37 °C and 5% CO2 in a humidifier incubator.
(§2) Cell viability was determined by the Alamar Blue assay (75 mg resazurin, 12.5 mg methylene blue, 164.5 mg potassium hexacyanoferrate (III), 211 mg potassium hexacyanoferrate (II) trihydrate in 500 mL of phosphate buffered saline). After 6 h incubation with Alamar Blue, the change of fluorescence was measured by Victor 3 multilabel Plate Reader (Perkin Elmer Australia, Melburne, Australia) at an excitation wavelength of 560 nm and an emission wavelength of 590 nm.
(§3) Next, we examined whether #5333 and #5338 treatment for 48 h affected the levels of WS6 target proteins, PA2G4, and MYCN in neuroblastoma cells. […] To determine the specificity of #5333 and #5338 for MYCN, we used two different doxycycline (Dox)-inducible neuroblastoma cell systems for repression of MYCN expression: shMYCN SK-N-BE(2)-C (MYCN-amplified) and shMYCN Kelly (MYCN-amplified) cell lines. Cell viability was measured following #5333 and #5338 treatments for 48–72 h. […] In addition, the specificity and efficacy of #5333 and #5338 were also tested in MYCN non-amplified SHEP MYCN3 cell lines with Dox-inducible MYCN induction. Cell viability was measured following #5333, #5338, or WS6 treatments for 72 h.
(§4) Figure 3 Compounds #5333 and #5338 functionally interact with MYCN and PA2G4 in neuroblastoma cells. (A) Western blot showing a decrease in protein expression due to #5333 or #5338 drug treatment. (B) Alamar Blue assays comparing cell viability of SK-N-BE(2)-C after Doxycycline (Dox)-inducible MYCN knockdown, followed by 72 h treatment with #5333 or #5338. […]

Kelly shMYCN cells = assay: Alamar Blue viability, Dox-inducible Kelly shMYCN cells; type: cell-based; conditions: Homo sapiens, 72 h, 72 h treatment
Description: as §1, §2, §3, §4

Kelly cells = assay: Colony formation assay, Kelly; type: cell-based, human; conditions: increasing concentrations, 2 weeks
Description: (§5) A total of 250 SK-N-BE(2)-C and 500 Kelly cells were seeded in 6-well plates and treated with #5333 and #5338 24 h after seeding. Once colonies had formed (14 days for Kelly, 10 days for SK-N-BE(2)-C), cells were fixed and stained with 0.5% crystal violet in 50% methanol and washed twice to remove the unincorporated stain. The photos of colonies were taken by ChemiDoc MP Imaging System (Bio-Rad, South Granville, NSW, Australia). Stained colonies were counted, and colony size was measured using Image J software.
(§6) We treated human neuroblastoma tumour cell lines with high MYCN and PA2G4 expression (Kelly and SK-N-BE(2)-C), using increasing concentrations of #5333 or #5338, and measured the ability of cells to proliferate and form colonies in vitro over 2 weeks. […] Next, we evaluated cell replication using the BrdU uptake assay in response to 30 μM drug treatment for 48 h (Figure 2C).

SK-N-BE(2)-C cells = assay: Colony formation assay, SK-N-BE(2)-C; type: cell-based, human; conditions: increasing concentrations, 2 weeks
Description: as §5, §6

[2] = test system: neuroblastoma cells (Kelly and SK-N-BE(2)-C); assay: BrdU cell proliferation assay; type: cell-based, human; conditions: 30 μM drug treatment for 48 h
Description: Cells were seeded in 96-well plates the day before and then treated with #5333 and #5338 for […]. Cell proliferation was measured using the BrdU ELISA kit (Roche, Millers Point, Australia), according to the manufacturer’s instructions. 10 μM BrdU was added to media and incubated at 37 °C in 5% CO2 for 2 h. Cells were fixed with supplied fixing solution for 30 min and then blocked with 10% FCS in PBS for 10 min. Peroxidase-conjugated anti-BrdU (1:100) was added and incubated for 90 min at room temperature. After washing with PBS for three times, peroxidase substrate was added to the cells. Changes in cell proliferation were calculated from the absorbance readings at 370 nm (495 nm reference wavelength) on the Benchmark Plus microplate reader (Bio-Rad).
as §6

[3] = Dox (2 μg/ml) +, MYCN - (knockdown)

## Cc1cccc(Oc2cc(N3CCC(C(=O)NCc4cccc(Br)c4)CC3)ncn2)c1C [#5333]
[1]; [3]
  IC50: 46.6 µM
[1]; Dox (2 μg/ml) -, MYCN +
  IC50: 25.2 µM
Kelly shMYCN cells; [3]
  IC50: 52.8 µM
Kelly shMYCN cells; Dox (2 μg/ml) -, MYCN +
  IC50: 22.4 µM
Kelly cells
  colony number and size, Kelly: decreased both the number and size of the colonies
SK-N-BE(2)-C cells
  colony number and size, SK-N-BE(2)-C: decreased both the number and size of the colonies
[2]
  cell proliferation (BrdU uptake): significantly reduced

## Cc1cccc(Oc2cc(N3CCC(C(=O)N[C@@H](C)CCc4ccccc4)CC3)ncn2)c1C [#5338]
[1]; [3]
  IC50: 32.3 µM
[1]; Dox (2 μg/ml) -, MYCN +
  IC50: 24.1 µM
Kelly shMYCN cells; [3]
  IC50: 31.5 µM
Kelly shMYCN cells; Dox (2 μg/ml) -, MYCN +
  IC50: 16 µM
Kelly cells
  colony number and size, Kelly: decreased both the number and size of the colonies
SK-N-BE(2)-C cells
  colony number and size, SK-N-BE(2)-C: decreased both the number and size of the colonies
[2]
  cell proliferation (BrdU uptake): significantly reduced
